Bounds are passed on as bounds.

One data set concerns Hepatitis C virus. Briefly: Antiviral activity against Hepatitis C virus infected in human HuH7-Rep cells assessed as inhibition of viral replication by luciferase reporter gene assay. It is filed as functional, organism-based, Hepacivirus hominis. As to conditions: Huh-7. A general note: In a reporter assay the amount or activity of a reporter protein is the signal.
Data set [1] in a line: Cytotoxicity against human HuH7 cells by CMV-luciferase reporter gene assay. It is filed as cell-based, Huh-7.
Data set [2] concerns Rattus norvegicus. Briefly: AUCt in Sprague-Dawley rat assessed as 4'-azido-2'-deoxy-2'-methylcytidine level at 20 umol/kg, po. It is filed as ADME, organism-based, Plasma. As to conditions: in vivo.
Data set [3] concerns Rattus norvegicus. Briefly: AUC (0 to infinity) in Sprague-Dawley rat assessed as 4'-azido-2'-deoxy-2'-methylcytidine level at 20 umol/kg, po. The data set is classed as ADME, organism-based, Plasma. More on the design: dose 20 umol/kg, route oral, time infinity. To be noted: in vivo.
The test system of data set [4] is Rattus norvegicus. Briefly: Cmax in Sprague-Dawley rat assessed as 4'-azido-2'-deoxy-2'-methylcytidine level at 20 umol/kg, po. The data set is classed as ADME, organism-based. Also noted: dose 20 umol/kg, route oral. To be noted: in vivo.
Data set [5] has as its system Rattus norvegicus. The experiment in a line: Tmax in Sprague-Dawley rat assessed as 4'-azido-2'-deoxy-2'-methylcytidine level at 20 umol/kg, po. It is filed as ADME, organism-based. To be noted: in vivo.
Data set [6] deals with Rattus norvegicus. Briefly: Apparent oral clearance in Sprague-Dawley rat assessed as 4'-azido-2'-deoxy-2'-methylcytidine level at 20 umol/kg, po. The data set is classed as ADME, organism-based. As to conditions: in vivo.
For data set [7], the system named is Rattus norvegicus. Briefly: Oral bioavailability in Sprague-Dawley rat assessed as 4'-azido-2'-deoxy-2'-methylcytidine level at 20 umol/kg. It is filed as ADME, organism-based. To be noted: in vivo.
Data set [8] is described as follows: Cytotoxicity against human MT4 cells by LTR-luciferase reporter gene assay. It is filed as cell-based.
The nature of data set [9]: Intrinsic clearance in human liver microsomes. The data set is classed as ADME, Microsome. To be noted: read-out: CLH. (In general: Liver microsomes are a subcellular fraction often used to study metabolism.)
A short description of data set [10]: Apparent permeability across human Caco2 cells. It is filed as ADME, cell-based. To be noted: Caco-2.
Data set [11] can be described thus: AUCt in Sprague-Dawley rat at 5 umol/kg, iv. The data set is classed as ADME, organism-based. As to conditions: plasma.
The nature of data set [12]: AUCt in Sprague-Dawley rat at 20 umol/kg, po. It is filed as ADME, organism-based. As to conditions: plasma.
A short description of data set [13]: AUC (0 to infinity) in Sprague-Dawley rat at 5 umol/kg, iv. As to conditions: plasma. Also noted: dose 5 umol/kg, route intravenous, time infinity. The data set is classed as ADME, organism-based.
The nature of data set [14]: AUC (0 to infinity) in Sprague-Dawley rat at 20 umol/kg, po. As to conditions: plasma. It is filed as ADME, organism-based. More on the design: dose 20 umol/kg, time infinity, route oral.
Data set [15] is described as follows: Cmax in Sprague-Dawley rat at 20 umol/kg, po. It is filed as ADME, organism-based. More on the design: dose 20 umol/kg, route oral. To be noted: in vivo.
The nature of data set [16]: Tmax in Sprague-Dawley rat at 20 umol/kg, po. It is filed as ADME, organism-based. As to conditions: in vivo.
Data set [17] is described as follows: Apparent oral clearance in Sprague-Dawley rat at 20 umol/kg, po. As to conditions: in vivo. The data set is classed as ADME, organism-based.
The nature of data set [18]: Oral bioavailability in Sprague-Dawley rat at 20 umol/kg. The data set is classed as ADME, organism-based. To be noted: in vivo.
Data set [19] can be described thus: Intrinsic clearance in rat liver microsomes. It is filed as ADME, Microsome. To be noted: read-out: CLH.

On to `CC(C)[C@H](N)C(=O)O[C@H]1[C@@H](C)[C@H](n2ccc(N)nc2=O)O[C@@]1(CO)N=[N+]=[N-].O=C(O)C(F)(F)F`, for which the EC50 in the data set with Hepatitis C virus turned out to be 0.72 µM. The molecule further returned a CC50 in [1] above 100 µM. In addition, the AUCt with Rattus norvegicus [2] worked out at 3.66 µM·h. Also, the AUC in the data set with Rattus norvegicus [3] is 4.06 µM·h. In addition, the Cmax with Rattus norvegicus [4] was determined as 1140 nM. Besides, in the data set with Rattus norvegicus [5], the Tmax came to 1 h. The CL/F in the data set with Rattus norvegicus [6] amounted to 82.2 mL/min/kg. Moreover, in the data set on Rattus norvegicus [7], the F is reported as 20%.

Turning to `C[C@H]1[C@H](n2ccc(N)nc2=O)O[C@@](CO)(N=[N+]=[N-])[C@H]1O`, the EC50 in the data set with Hepatitis C virus turned out to be 1.2 µM. Also, the 50% cytotoxic concentration (CC50) in [1] and in data set [8] was above 98 µM throughout. Also, the microsomal CLint in [9] and in data set [19] was below 6 µL/min/mg throughout. In [10], the Papp was determined as 1.7 ×10⁻⁶ cm/s. The values for the AUC(0-t) in [11] and in data set [12] were 4.97 µM·h and 2.66 µM·h, respectively. For the same molecule, the figures for the AUC(0-inf) in data set [13] and in [14] were 4.98 µM·h and 2.87 µM·h, respectively. The Cmax in data set [15] worked out at 610 nM. Also, the Tmax in data set [16] was 2 h. In addition, in data set [17], the CL/F is 119 mL/min/kg. The molecule further yielded a bioavailability in data set [18] of 14%.

In the case of `C[C@H]1[C@H](n2ccc(=O)[nH]c2=O)O[C@@](COP(=O)(N[C@@H](C)C(=O)OCc2ccccc2)Oc2cccc3ccccc23)(N=[N+]=[N-])[C@H]1O` (stereo partly drawn), the EC50 in the data set on Hepatitis C virus was determined as 6.2 µM. For the same molecule, the values for the CC50 in data set [1] and in data set [8] were above 100 µM and 41 µM, respectively.

With `CC(C)[C@H](N)C(=O)OC[C@@]1(N=[N+]=[N-])O[C@@H](n2ccc(N)nc2=O)[C@H](C)[C@@H]1OC(=O)[C@@H](N)C(C)C.O=C(O)C(F)(F)F`, the concentration for a half-maximal effect (EC50) in the data set with Hepatitis C virus was 1.9 µM. The molecule further gave a CC50 in data set [1] above 100 µM. In addition, the AUCt in the data set on Rattus norvegicus [2] was 1.22 µM·h. In addition, the AUC in the data set with Rattus norvegicus [3] was found to be 1.35 µM·h. The Cmax in the data set on Rattus norvegicus [4] amounted to 290 nM. Besides, the Tmax in the data set with Rattus norvegicus [5] was 1 h. In addition, the CL/F with Rattus norvegicus [6] stood at 247 mL/min/kg. Further, the F with Rattus norvegicus [7] came out at 7%.

As to `C[C@H]1[C@H](n2ccc(N)nc2=O)O[C@@](COP(=O)(N[C@@H](C)C(=O)OCc2ccccc2)Oc2cccc3ccccc23)(N=[N+]=[N-])[C@H]1O` (stereo partly drawn), the EC50 in the data set with Hepatitis C virus came out at 3 µM. Moreover, the figures for the CC50 in [1] and in [8] were above 100 µM and above 32 µM, respectively.

`CC(C)[C@H](N)C(=O)OC[C@@]1(N=[N+]=[N-])O[C@@H](n2ccc(N)nc2=O)[C@H](C)[C@@H]1O.O=C(O)C(F)(F)F`: the EC50 with Hepatitis C virus was determined as 0.79 µM. In addition, the CC50 in data set [1] was above 100 µM. Besides, the AUCt with Rattus norvegicus [2] stood at 1.56 µM·h. In the data set with Rattus norvegicus [3], the AUC worked out at 1.68 µM·h. In addition, the Cmax with Rattus norvegicus [4] stood at 500 nM. The Tmax with Rattus norvegicus [5] turned out to be 1 h. Further, the CL/F in the data set on Rattus norvegicus [6] came out at 200 mL/min/kg. For the same molecule, in the data set with Rattus norvegicus [7], the F is listed as 8%.

On to `C[C@H]1[C@H](n2ccc(=O)[nH]c2=O)O[C@@](CO)(N=[N+]=[N-])[C@H]1O`, for which the IC50 in the data set with Hepatitis C virus was above 50 µM. For the same molecule, the CC50 in [1] and in data set [8] was above 100 µM each time.

As to `CC(C)C(=O)OC[C@@]1(N=[N+]=[N-])O[C@@H](n2ccc(N)nc2=O)[C@H](C)[C@@H]1OC(=O)C(C)C`, the EC50 in the data set with Hepatitis C virus was determined as 6.6 µM. The CC50 was above 100 µM in data set [1] and above 50 µM in data set [8]. Also, in [9], the microsomal CLint was above 300 µL/min/mg. Further, the Papp in data set [10] was 7.7 ×10⁻⁶ cm/s. In addition, the AUCt in the data set on Rattus norvegicus [2] stood at 12.7 µM·h. Moreover, the AUC in the data set with Rattus norvegicus [3] worked out at 12.9 µM·h. The Cmax in the data set on Rattus norvegicus [4] was 4650 nM. In the data set on Rattus norvegicus [5], the Tmax amounted to 1 h. The CL/F in the data set with Rattus norvegicus [6] turned out to be 25.8 mL/min/kg. In addition, the F in the data set with Rattus norvegicus [7] is 65%.

A word on the EC50: it is the concentration giving half of the maximal effect. The CC50 is the concentration giving 50% cytotoxicity. High values mean lower toxicity to the cells, low ones greater toxicity to the cells. As a reminder, the AUC is the area under the concentration-time curve, a measure of exposure. The term Cmax denotes the highest concentration seen after dosing. A word on the Tmax: it is the time at which the peak concentration occurs. As usually defined, the CL/F is the apparent clearance, not corrected for the fraction that reaches the circulation. In general, Papp refers to the rate of passage across a membrane or cell layer, normalised by area and donor concentration. Usually AUC(0-t) stands for the area under the concentration-time curve up to a stated or last time point. Low readings indicate less exposure, high ones more exposure. One may read the AUC(0-inf) as total exposure, with the tail of the curve extrapolated. Read a low AUC(0-inf) as less exposure. Usually bioavailability stands for the share of a dose that reaches the circulation, judged against a reference dose that is usually intravenous. Lower therefore signals poor availability. One may read the IC50 as the point on the concentration scale where inhibition reaches its midpoint.

The values are drawn from ChEMBL document CHEMBL2021759, “Discovery of 4'-azido-2'-deoxy-2'-C-methyl cytidine and prodrugs thereof: a potent inhibitor of Hepatitis C virus replication” (Bioorg Med Chem Lett, 2012).
